We go through one compound from patent publication US20210353579A1, “HIGH PENETRATION COMPOSITIONS AND USES THEREOF” (Techfields Pharma Co., Ltd., priority 2006, published 2021).

Assay [1] deals with normal rats. Nature of the assay: Blood glucose in normal rats, oral with food. The class given is in vivo, rat.
Assay [2] deals with rats (SLAC/GK, type 2 diabetes). Nature of the assay: Blood glucose in type 2 diabetes rats, transdermal. The conditions noted are these: diabetic rats (SLAC/GK). It is filed as in vivo, rat. The gist of the method: (§1)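 GK type 2 diabetic rats (n=7) received the HPPs transdermally on a shaved ~1.5 cm^2 area of the back, at a dose equal to 20 mg/kg of NSAIAs, once daily for 5 weeks. Non-fasting blood glucose was measured every 3 days at 3 pm from week 2 to week 5, and blood lipids at the end of week 5.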

The subject of assay [3] is normal rats. The experiment in a line: Blood glucose in normal rats, transdermal. The class given is in vivo, rat. An outline of the steps: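 Compounds equivalent to 20 mg/kg NSAIA were applied transdermally to a shaved ~1.5 cm^2 area of rat backs once daily at 8 am for 5 weeks (n=7). Non-fasting blood glucose was measured every 3 days at 3 pm from week 2 to week 5, and blood lipids at the end of week 5.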

In assay [4] the test system is rats (SLAC/GK, type 2 diabetes). Nature of the assay: Blood lipid in type 2 diabetes rats, transdermal. It is filed as in vivo, rat. An outline of the steps:
as §1

The next assay concerns mice (MRL/LPR). Nature of the assay: Anti-lupus erythematosus activity. The class given is in vivo, mouse. The conditions noted are these: 30 mg/kg topically twice per day, after 6 weeks.
Assay [5] has as its system rats (SLAC/GK, type 2 diabetes). Nature of the assay: Blood lipid in type 2 diabetes rats, oral with food. The class given is in vivo, rat. An outline of the steps:
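Compounds (dosed equivalent to 20 mg/kg of NSAIAs) mixed in food and given orally daily for 5 weeks to rats (n=7). Non-fasting blood glucose measured every 3 days at 3 pm from week 2 to week 5; blood lipids measured at end of week 5.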

The subject of assay [6] is Human colon cancer cells (LS174J). Nature of the assay: Human colon cancer xenograft in nude mice, topical. To be noted: day 30, about 30 μl of 5% solution (1.5 mg) topically applied. An excerpt:
Human colon cancer cells (LS174J, 2-3 mm^3 of tumor tissue was used in each mouse) are subcutaneously xenografted into the front leg of nude mice (BALB).
(In xenograft studies the graft and the host belong to different species.)

For assay [7], the system named is mice (SLAC:NOD-IDDM, type 1 diabetes). Nature of the assay: Blood glucose in type 1 diabetes mice, transdermal. It is filed as in vivo, mouse. An outline of the steps:
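NOD-IDDM type 1 diabetic mice (n=7) received prodrug transdermally on shaved back skin (~1.5 cm²), at a dose equivalent to 30 mg/kg NSAIA, once daily for 7 weeks. Non-fasted blood glucose was measured every 3 days at 3 pm from week 4 to week 7.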

[8] abbreviates: baseline, equal to 20 mg/kg of NSAIAs.
Setting [9] is: end of the fifth week, equal to 20 mg/kg of NSAIAs once per day.
[10] abbreviates: end of the fifth week, equal to 20 mg/kg of NSAIAs every day.

Each structure is given as a SMILES string.

Take `CC(=O)Oc1ccccc1C(=O)O.CCN(CC)CCOC(=O)c1ccccc1OC(C)=O` [P-1, diethylaminoethyl acetylsalicylate.acetylsalicylic acid salt]: in the assay on normal rats [1] (average second to fifth week, equal to 20 mg/kg of NSAIAs every day), the “Blood glucose, Normal rats, Average” value came to 6.5 ± 1 mmol/L. Also, in the assay with normal rats [1] (setting [8]), the “Blood glucose, Normal rats, Baseline” value is reported as 6.3 ± 1 mmol/L. Moreover, the “Blood glucose, Average” value in assay [2] (average second to fifth week, no fasting, equal to 20 mg/kg of NSAIAs once per day for 5 weeks) came out at 6.5 ± 1 mmol/L; in the assay on normal rats [3] (normal rats (second Average line of Table 24), average second to fifth week, equal to 20 mg/kg of NSAIAs once per day), 6.3 ± 1 mmol/L; in assay [7] (average fourth to seventh week, no fasting, equal to 30 mg/kg of NSAIAs once per day for 7 weeks) it was 6.5 ± 1 mmol/L. Moreover, the “Blood glucose, Baseline” value in assay [2] (baseline, equal to 20 mg/kg of NSAIAs once per day) was found to be 16.1 ± 3 mmol/L; in the assay with normal rats [3] (normal rats (second Baseline line of Table 24), baseline, equal to 20 mg/kg of NSAIAs), 6.4 ± 1 mmol/L; in assay [7] (baseline, equal to 30 mg/kg of NSAIAs) it was 26.1 ± 5 mmol/L. Moreover, the “Cholesterol (HDL), Baseline” value in assay [4] (setting [8]) is recorded as 1.4 ± 0.2 mmol/L; in assay [5] (setting [8]) it was 1.5 ± 0.2 mmol/L. Besides, the “Cholesterol (total), Baseline” value was found to be 7.7 ± 0.4 mmol/L in assay [4] (setting [8]) and 7.6 ± 0.4 mmol/L in assay [5] (setting [8]). Moreover, the “Triglycerides, Baseline” value in assay [4] (setting [8]) worked out at 5.4 ± 0.5 mmol/L; in assay [5] (setting [8]) it was 5.7 ± 0.5 mmol/L. Also, the “Cholesterol (HDL), Average” value is on record as 1.5 ± 0.2 mmol/L in assay [4] (setting [9]) and 1.6 ± 0.2 mmol/L in assay [5] (setting [10]). In addition, the results for the “Cholesterol (total), Average” value in assay [4] (setting [9]) and in assay [5] (setting [10]) were 4.0 ± 0.3 mmol/L and 4.1 ± 0.3 mmol/L, respectively. Moreover, the “Triglycerides, Average” value came to 1.5 ± 0.2 mmol/L in assay [4] (setting [9]) and 1.4 ± 0.2 mmol/L in assay [5] (setting [10]). Also, in the assay on mice (MRL/LPR), the “skin lesions and lupus nephritis” value is “all skin lesions and lupus nephritis were resolved”. In assay [6], this compound returned a Tumor size of 420 ± 100 mm^3.
